A short description of data set [1]: Particle size and polydispersity index of nanoparticle compositions (Zetasizer Nano ZS). The format is physicochemical. The conditions noted are these: summary of Table 1. The method, then: A Zetasizer Nano ZS (Malvem Instruments Ltd, Malvem, Worcestershire, UK) can be used to determine the particle size, the polydispersity index (PDI) and the zeta potential of the nanoparticle compositions in 1×PBS in determining particle size and 15 mM PBS in determining zeta potential.

A short description of data set [2]: Encapsulation efficiency of RNA (QUANT-IT RIBOGREEN RNA assay). In kind it is physicochemical. The conditions noted are these: summary of Table 1. The method, then:
For nanoparticle compositions including an RNA, a QUANT-IT™ RIBOGREEN® RNA assay (Invitrogen Corporation Carlsbad, CA) can be used to evaluate the encapsulation of an RNA by the nanoparticle composition. The samples are diluted to a concentration of approximately 5 μg/mL in a TE buffer solution (10 mM Tris-HCl, 1 mM EDTA, pH 7.5). 50 μL of the diluted samples are transferred to a polystyrene 96 well plate and either 50 μL of TE buffer or 50 μL of a 2% Triton X-100 solution is added to the wells. The plate is incubated at a temperature of 37° C. for 15 minutes. The RIBOGREEN® reagent is diluted 1:100 in TE buffer, and 100 μL of this solution is added to each well. The fluorescence intensity can be measured using a fluorescence plate reader (Wallac Victor 1420 Multilablel Counter; Perkin Elmer, Waltham, MA) at an excitation wavelength of, for example, about 480 nm and an emission wavelength of, for example, about 520 nm. The fluorescence values of the reagent blank are subtracted from that of each of the samples and the percentage of free RNA is determined by dividing the fluorescence intensity of the intact sample (without addition of Triton X-100) by the fluorescence value of the disrupted sample (caused by the addition of Triton X-100).

Data set [3] is described as follows: pKa of nanoparticle compositions. To be noted: Table 1b. The format is physicochemical.
Data set [4] can be described thus: Lipid clearance: % dose remaining in liver of CD-1 mice. The format is in vivo. To be noted: intravenous, 0.5 mg/kg, CD-1 mouse, Table 8a. An excerpt: In contrast, hEPO expression in rats induced by administration of a nanoparticle composition including a compound according to one of formulae (I), (Ia1)-(Ia6), (Ib), (II), (IIa), (III), and (IIIa) was substantially […] than that measured for MC3. […] Tables 7c and 7d show additional protein expressions and clearance data from compositions with various compounds disclosed herein as compared to with MC3. Tables 7e, 7f and 7g show hEPO expression data in CD-1 mice at a dose of 0.5 mpk.

As for `CCCCCCCCCCCCN(CCCCCCCCCCCC)CCN1CCN(CCN(CCCCCCCCCCCC)C(=O)CN(CCCCCCCCCCCC)CCCCCCCCCCCC)CC1` [Compound 1, 2-(Didodecylamino)-N-(2-(4-(2-(didodecylamino)ethyl)piperazin-1-yl)ethyl)-N-dodecylacetamide], the “particle size ranking amongst the compositions of Tables 1 and 1a” value in data set [1] is listed as “largest particles”. Also, in data set [2], the “encapsulation efficiency ranking amongst the compositions of Tables 1 and 1a” value is given as “lowest”.

As for `CCCCC/C=C\CCCCCN(CCCCCCCCCCCC)CCN1CCN(CCN(CCCCCCCCCCCC)CCN(CCCCCCCCCCCC)CCCCCCCCCCCC)CC1` [Compound 24, (Z)—N^1-(2-(4-(2-(Dodec-6-en-1-yl(dodecyl)amino)ethyl)piperazin-1-yl)ethyl)-N^1,N^2,N^2-tridodecylethane-1,2-diamine], in data set [2], the “encapsulation efficiency ranking amongst the compositions of Tables 1 and 1a” value is on record as “lowest”.

Take `CCCCC/C=C\C/C=C\CCCCCCCCN(CCCCCCCC/C=C\C/C=C\CCCCC)CCN(CCCCCCCC/C=C\C/C=C\CCCCC)CCN1CCN(CCN(CCCCCCCCCCCC)CCCCCCCCCCCC)CC1` [Compound 34, N^1-(2-(4-(2-(Didodecylamino)ethyl)piperazin-1-yl)ethyl)-N^1,N^2,N^2-tri((9Z,12Z)-octadeca-9,12-dien-1-yl)ethane-1,2-diamine]: in data set [1], the “particle size ranking amongst the compositions of Tables 1 and 1a” value is given as “smallest particles”.

Turning to `CCCCCCCCCN(CCCCCCCCC)CCN(CCCCCCCCC)CCN1CCNCC1` [Compound 36, N^1,N^1,N^2-Trinonyl-N^2-(2-(piperazin-1-yl)ethyl)ethane-1,2-diamine], the “encapsulation efficiency ranking amongst the compositions of Tables 1 and 1a” value in data set [2] is reported as “highest”.

As for `CCCCCCCCCCCCN(CCCCCCCCCCCC)CCN(CCCCCCCCCCCC)CCN1CCNCC1` [Compound 37, N^1,N^1,N^2-Tridodecyl-N^2-(2-(piperazin-1-yl)ethyl)ethane-1,2-diamine], the “encapsulation efficiency ranking amongst the compositions of Tables 1 and 1a” value in data set [2] is given as “highest”.

Consider `CCCCCCCC/C=C\CCCCCCCCN(CCCCCCCC/C=C\CCCCCCCC)CCN(CCCCCCCC/C=C\CCCCCCCC)CCN1CCNCC1` [Compound 40, N^1,N^1,N^2-Tri((Z)-octadec-9-en-1-yl)-N^2-(2-(piperazin-1-yl)ethyl)ethane-1,2-diamine], for which the “encapsulation efficiency ranking amongst the compositions of Tables 1 and 1a” value in data set [2] is reported as “highest”.

For `CCCCC/C=C\C/C=C\CCCCCCCCN(CCCCCCCC/C=C\C/C=C\CCCCC)CCN(CCCCCCCC/C=C\C/C=C\CCCCC)CCN1CCNCC1` [Compound 41, N^1,N^1,N^2-Tri((9Z,12Z)-octadeca-9,12-dien-1-yl)-N^2-(2-(piperazin-1-yl)ethyl)ethane-1,2-diamine], the “encapsulation efficiency ranking amongst the compositions of Tables 1 and 1a” value in data set [2] is reported as “highest”.

Turning to `CCCCCCCCCN(CCCCCCCCC)CCN(CCCCCCCCC)CCC1CCN(C(=O)CN(CCCCCCCCC)CCCCCCCCC)CC1` [Compound 50, 2-(Dinonylamino)-1-(4-(2-((2-(dinonylamino)ethyl)(nonyl)amino)ethyl)piperidin-1-yl)ethan-1-one], the “particle size ranking amongst the compositions of Tables 1 and 1a” value in data set [1] is given as “smallest particles”.

The pKa is the pH at which an ionisable group is half protonated. Low values mean a group that gives up its proton readily, high ones a group that holds its proton tightly. The compound `CCCCCCCCCN(CCCCCCCCC)CCN(CCCCCCCCC)CC(=O)N1CCN(C(=O)CN(CCCCCCCCC)CCCCCCC(=O)OCC)CC1` [Compound 53, Ethyl 7-((2-(4-(N-(2-(dinonylamino)ethyl)-N-nonylglycyl)piperazin-1-yl)-2-oxoethyl)(nonyl)amino)heptanoate] showed a pKa in data set [3] of 6.91.

`CCCCCCCCCN(CCCCCCCCC)CCN(CCCCCCCCC)CC(=O)N1CCN(C(=O)CN(CCCCCCCCC)CCCCCC(=O)OCCC)CC1` [Compound 54, Propyl 6-((2-(4-(N-(2-(dinonylamino)ethyl)-N-nonylglycyl)piperazin-1-yl)-2-oxoethyl)(nonyl)amino)hexanoate] displayed a pKa in data set [3] of 6.88.

The compound `CCCCCCCCCN(CCCCCCCCC)CCN(CCCCCCCCC)CC(=O)N1CCN(C(=O)CN(CCCCCCCCC)CCCCC(=O)OCCCC)CC1` [Compound 55, Butyl 5-((2-(4-(N-(2-(dinonylamino)ethyl)-N-nonylglycyl)piperazin-1-yl)-2-oxoethyl)(nonyl)amino)pentanoate] returned a pKa in data set [3] of 6.96.

Regarding `CCCCCCCCCN(CCCCCCCC(=O)OC)CCC1CCN(C(=O)CN(CCCCCCCCC)CCN(CCCCCCCCC)CCCCCCCCC)CC1` [Compound 57, Methyl 8-((2-(1-(N-(2-(dinonylamino)ethyl)-N-nonylglycyl)piperidin-4-yl)ethyl)(nonyl)amino)octanoate], the pKa in data set [3] worked out at 6.73.

In the case of `CCCCCCCCCN(CCCCCCC(=O)OCC)CCC1CCN(C(=O)CN(CCCCCCCCC)CCN(CCCCCCCCC)CCCCCCCCC)CC1` [Compound 58, Ethyl 7-((2-(1-(N-(2-(dinonylamino)ethyl)-N-nonylglycyl)piperidin-4-yl)ethyl)(nonyl)amino)heptanoate], the pKa in data set [3] turned out to be 6.7. The pKa values of the last two compounds are within 0.2 log units of each other.

In turn, `CCCCCCCCCN(CCCCCC(=O)OCCC)CCC1CCN(C(=O)CN(CCCCCCCCC)CCN(CCCCCCCCC)CCCCCCCCC)CC1` [Compound 59, Propyl 6-((2-(1-(N-(2-(dinonylamino)ethyl)-N-nonylglycyl)piperidin-4-yl)ethyl)(nonyl)amino)hexanoate] yielded a pKa in data set [3] of 6.68.

Regarding `CCCCCCCCCN(CCCC(=O)OCCCCC)CCC(=O)N1CCN(C(=O)CCN(CCCCCCCCC)CCN(CCCCCCCCC)CCCCCCCCC)CC1` [Compound 62, Pentyl 4-((3-(4-(3-((2-(dinonylamino)ethyl)(nonyl)amino)propanoyl)piperazin-1-yl)-3-oxopropyl)(nonyl)amino)butanoate], the pKa in data set [3] came out at 7.56. In data set [4], the “% Dose Remaining 6 hr” value is 16.99% and the “% Dose Remaining 24 hr” value worked out at 14.36%.

In the case of `CCCCCCCCCN(CCCCCCCCC)CCC1CCN(C(=O)CN(CCCCCCCCC)CCN(CCCCCCCCC)CCCCCCCCC)C1` (stereo not shown) [Compound 69, 2-((2-(Dinonylamino)ethyl)(nonyl)amino)-1-(3-(2-(dinonylamino)ethyl)pyrrolidin-1-yl)ethan-1-one], in data set [3], the pKa is 7.01. In addition, in data set [4], the “% Dose Remaining 6 hr” value amounted to 59.21% and the “% Dose Remaining 24 hr” value was 52.03%.

`CCCCCCCCCN(CCCCCCCCC)CCN(CCCCCCCCC)CC(=O)N1CCC(CN(CCCCCCCCC)CCCCCCCCC)C1` (stereo not shown) [Compound 70, 2-((2-(Dinonylamino)ethyl)(nonyl)amino)-1-(3-((dinonylamino)methyl)pyrrolidin-1-yl)ethan-1-one] came in with a pKa in data set [3] of 6.75. In data set [4], the “% Dose Remaining 6 hr” value came out at 56.30% and the “% Dose Remaining 24 hr” value turned out to be 57.20%.

Consider `CCCCCCCCCN(CCCCCCCCC)CCN(CCCCCCCCC)CC(=O)N1CCN(C(=O)CN(CCCC(=O)OCCCCC)CCCC(=O)OCCCCC)CC1` [Compound 72, Dipentyl 4,4′-((2-(4-(N-(2-(dinonylamino)ethyl)-N-nonylglycyl)piperazin-1-yl)-2-oxoethyl)azanediyl)dibutyrate], for which the pKa in data set [3] was 7.19.

For the compound `CCCCCCCCCN(CCCCCCCCC)CCC1CCCN(C(=O)CN(CCCCCCCCC)CCN(CCCCCCCCC)CCCCCCCCC)C1` (stereo not shown) [Compound 73, 2-((2-(Dinonylamino)ethyl)(nonyl)amino)-1-(3-(2-(dinonylamino)ethyl)piperidin-1-yl)ethan-1-one], the pKa in data set [3] is 6.65. Further, in data set [4], the “% Dose Remaining 6 hr” value was 68.53% and the “% Dose Remaining 24 hr” value stood at 64.75%.

In turn, `CCCCCCCCCN(CCCC(=O)OCCCCC)CCC1CCCN(C(=O)CN(CCCCCCCCC)CCN(CCCCCCCCC)CCCCCCCCC)C1` (stereo not shown) [Compound 80, Pentyl 4-((2-(1-(N-(2-(dinonylamino)ethyl)-N-nonylglycyl)piperidin-3-yl)ethyl)(nonyl)amino)butanoate] returned a pKa in data set [3] of 6.78. Also, in data set [4], the “% Dose Remaining 6 hr” value is on record as 23.78% and the “% Dose Remaining 24 hr” value is 25.25%.

With `CCCCCCCCCN(CCCC(=O)OCCCCC)CCC1CCN(C(=O)CN(CCCCCCCCC)CCN(CCCCCCCCC)CCCCCCCCC)C1` (stereo not shown) [Compound 81, Pentyl 4-((2-(1-(N-(2-(dinonylamino)ethyl)-N-nonylglycyl)pyrrolidin-3-yl)ethyl)(nonyl)amino)butanoate], the pKa in data set [3] is given as 7.22. Also, in data set [4], the “% Dose Remaining 6 hr” value was determined as 15.28% and the “% Dose Remaining 24 hr” value is listed as 19.27%.

Take `CCCCCCCCCN(CCCCCCCCC)CCN(CCCCCCCCC)CC(=O)N1CCC(CN(CCCCCCCCC)CCCC(=O)OCCCCC)C1` (stereo not shown) [Compound 82, Pentyl 4-(((1-(N-(2-(dinonylamino)ethyl)-N-nonylglycyl)pyrrolidin-3-yl)methyl)(nonyl)amino)butanoate]: the pKa in data set [3] is given as 7.05. Besides, in data set [4], the “% Dose Remaining 6 hr” value is given as 37.85% and the “% Dose Remaining 24 hr” value amounted to 38.66%.

The values are drawn from US12077501B2, “Compounds and compositions for intracellular delivery of agents” (ModernaTX, Inc., priority 2017, dated 2024).
